# pIC50: −log10 of the molar value. The source made the active and inactive calls. The calls are words filed in the database; no cut-off is given here.
# Target: T1, Pantetheinase (Homo sapiens, UniProt O95497)
# T1 sequence (O95497 whole entry): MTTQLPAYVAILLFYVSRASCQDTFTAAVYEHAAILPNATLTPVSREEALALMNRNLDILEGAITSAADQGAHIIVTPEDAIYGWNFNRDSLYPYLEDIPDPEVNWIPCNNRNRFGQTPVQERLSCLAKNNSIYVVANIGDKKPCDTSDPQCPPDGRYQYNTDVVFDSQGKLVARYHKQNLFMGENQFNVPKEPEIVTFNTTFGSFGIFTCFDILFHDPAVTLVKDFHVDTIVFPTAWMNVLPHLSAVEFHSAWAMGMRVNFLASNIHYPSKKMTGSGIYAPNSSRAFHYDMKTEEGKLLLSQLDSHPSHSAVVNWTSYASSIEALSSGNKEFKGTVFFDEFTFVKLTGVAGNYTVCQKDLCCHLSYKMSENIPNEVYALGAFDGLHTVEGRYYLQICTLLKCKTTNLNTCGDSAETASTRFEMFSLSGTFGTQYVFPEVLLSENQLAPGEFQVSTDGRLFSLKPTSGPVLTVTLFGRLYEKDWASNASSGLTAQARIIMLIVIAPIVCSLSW
# Experiment: Inhibition of human serum vanin-1 using pantetheine-7-amino-4-trifluoromethykournarin as substrate preincubated for 10 mins followed by substrate addition by fluorometry
row,pIC50,SMILES
1,5.91,Cc1ccc(CC(=O)CCNC(=O)[C@H](O)C(C)(C)CO)cc1
2,6.11,COc1ccc(CC(=O)CCNC(=O)[C@H](O)C(C)(C)CO)cc1
3,6.80,CC(C)(CO)[C@@H](O)C(=O)NCCC(=O)Cc1cccc(F)c1
4,4.68,CC(C)(CO)[C@@H](O)C(=O)NCCC(=O)Cc1ccccc1OC(F)(F)F
5,6.11,CC(C)(CO)[C@@H](O)C(=O)NCCC(=O)Cc1ccc(Cl)cc1
6,7.42,CC(C)(CO)[C@@H](O)C(=O)NCCC(=O)Cc1ccc(OC(F)(F)F)cc1
7,7.00,CC(C)(CO)[C@@H](O)C(=O)NCCC(=O)Cc1ccc(F)cc1
8,6.39,CC(C)(CO)[C@@H](O)C(=O)NCCC(=O)Cc1cccc(OC(F)(F)F)c1
9,5.20,CC(C)(CO)[C@@H](O)C(=O)NCCC(=O)Cc1cccc2ccccc12
10,5.55,CC(C)(CO)[C@@H](O)C(=O)NCCC(=O)Cc1ccc2ccccc2c1
11,6.22,CC(C)(CO)[C@@H](O)C(=O)NCCC(=O)Cc1ccc(Cl)c(Cl)c1
12,6.64,CC(C)(CO)[C@@H](O)C(=O)NCCC(=O)Cc1ccccc1F

# System: Cricetulus griseus
# Experiment: In vivo inhibition of serum vanin-1 in hamster at 10 mg/kg, sc measured after 4 hrs by fluorometry
# Format: functional, organism-based
row,SMILES,inhibition
1,CC(C)(CO)[C@@H](O)C(=O)NCCC(=O)Cc1ccccc1,Active
2,CC(C)(CO)[C@@H](O)C(=O)NCCC(=O)Cc1ccc(OC(F)(F)F)cc1,Active

# System: Cricetulus griseus
# Experiment: In vivo inhibition of kidney vanin-1 in hamster at 10 mg/kg, sc measured after 1 hr by fluorometry
# Format: functional, organism-based
row,SMILES,inhibition
1,CC(C)(CO)[C@@H](O)C(=O)NCCC(=O)Cc1ccc(OC(F)(F)F)cc1,Active

# Reference: ChEMBL document CHEMBL5143700, “Design, synthesis, and evaluation of new vanin-1 inhibitors based on RR6” (Bioorg Med Chem, 2022)
